# Test results taken from paper PMC8022858, “Discovery of bone morphogenetic protein 7-derived peptide sequences that attenuate the human osteoarthritic chondrocyte phenotype” (Molecular Therapy. Methods & Clinical Development, 2021).
# Assays:
# OA-HACs = experiment: sGAG content of OA-HAC cultures (DMB assay); format: cell-based, human; conditions: three individual OA-HAC donors, 100 nM peptide, 24 h, normalized to total protein (Figure 2D)
# Method: Figure 2 Bioactivity of BMP7-derived peptides p[63−82] and p[113−132] on OA-HACs Complete peptide library screening quantitative real-time PCR dataset for peptides p[63−82] and p[113−132] is presented. (A) SOX9, COL2A1, and NKX3-2 mRNA expression in the 18 OA-HAC pool exposed to 1,000, 100, 10, or 1 nM of peptide p[63−82] and p[113−132] is shown and presented relative to control (black bars) and alongside full-length BMP7 (white bars). (B) Similar to (A) but for chondrocyte hypertrophy-associated genes RUNX2, COL10A1, and ALPL. (C) Similar to (A) but for cartilage extracellular matrix remodeling-associated genes MMP13 and ADAMTS5 and inflammation-related genes COX-2 and IL-6. […] (G) In the same OA-HAC pool of 18 OA-HAC donors from the peptide library screening, sequence dependency of peptides p[63−82] and p[113−132] was determined by exposing the OA-HAC pool to scrambled versions of peptides p[63−82] and p[113−132] […] Error bars represent mean ± SEM, and statistical significance for peptide conditions or BMP7 versus control condition as determined by unpaired two-tailed Student’s t test is represented as ∗p < 0.05, ∗∗p < 0.01, and ∗∗∗p < 0.001.
# The sGAG content was measured using a modified dimethyl methylene blue (DMB) assay.[58] The absorbance of samples was read at 540 and 595 nm using a spectrophotometer (Multiskan FC; Thermo Fisher Scientific). […]
# [1] = system: human OA cartilage explants; experiment: PGE2 levels in culture supernatant of cartilage explants; format: cell-based; conditions: n = 5 donors, 24 h, relative to control (Figure 6D)
# Method: Figure 6 Peptide p[63−82] activity on OA knee joint tissues Human OA knee joint tissues were cultured for 24 h in the presence of BMP7, peptide p[63−82], or the scrambled version of peptide p[63−82] and compared to control conditions. (A) Cartilage tissues (n = 7 individual donors) were exposed to shown conditions and analyzed for COL2A1, COL10A1, and COX-2 mRNA expression by quantitative real-time PCR (normalized for 28S rRNA expression and relative to control conditions). (B) GAG release in medium from cartilage tissues (n = 5 individual donors) was determined, and data were calculated relative to the control condition. (C) PGE2 levels in culture supernatant from synovium (n = 5 donors). (D) PGE2 levels in culture supernatant from cartilage tissues from (B) (n = 5 donors). (E) PGE2 levels in culture supernatant from IPFP (n = 5 donors). (F) PGE2 levels in culture supernatant from the meniscus. Synovium, IPFP, and meniscus tissues were from the same 5 donors as the cartilage tissues in (B) and (C). PGE2 levels in conditions were calculated relative to controls for each donor. In graphs, error bars represent mean ± SEM; data are presented relative to the control condition for each time point. Statistical differences (unpaired two-tailed Student’s t test) were calculated to control condition: ∗p < 0.05, ∗∗p < 0.01, and ∗∗∗p < 0.001. […]
Substance,sulfated glycosaminoglycan (sGAG) content (OA-HACs),PGE2 levels from cartilage explants [1]
H-AAYYSEGESAFPLNSYMNAT-OH [p[63−82]],increased,reduced
"BMP7: full-length recombinant bone morphogenetic protein 7 (R&D Systems), used at 1 nM",,reduced
